Test results reported in ChEMBL document CHEMBL4007493 (J Med Chem, 2017).

Assays:
D(2) dopamine receptor [1] = biological target: T1, D(2) dopamine receptor (Homo sapiens, UniProt P14416); experiment: biochemical
D(3) dopamine receptor [2] = biological target: T2, D(3) dopamine receptor (Homo sapiens, UniProt P35462); experiment: biochemical
D(2) dopamine receptor [3] = biological target: T1, D(2) dopamine receptor
D(2) dopamine receptor [4] = biological target: T1, D(2) dopamine receptor; experiment: Antagonist activity at human dopamine D2 receptor expressed in HEK293 cells coexpressing renilla luciferase-fused GalphaoA/GFP10-fused Ggamma2 assessed as inhibition of quinpirole-induced GalphaoA activation by BRET assay relative to quinpirole; assay type: cell-based
D(2) dopamine receptor [5] = biological target: T1, D(2) dopamine receptor; experiment: Antagonist activity at renilla luciferase-tagged human dopamine D2 receptor expressed in HEK293 cells coexpressing mVenus-fused beta-arrestin 2 assessed as reduction in quinpirole-mediated beta-arrestin 2 recruitment preincubated for 15 mins followed by quinpirole addition measured for 1 sec by BRET assay relative to quinpirole; assay type: cell-based
D(2) dopamine receptor [6] = biological target: T1, D(2) dopamine receptor; experiment: Antagonist activity at human dopamine D2 receptor expressed in HEK293 cells assessed as reduction in quinpirole-mediated cAMP inhibition preincubated for 15 mins followed by quinpirole addition measured for 1 sec by BRET assay relative to quinpirole; assay type: functional, cell-based
D(2) dopamine receptor [7] = biological target: T1, D(2) dopamine receptor; remark: listed apart in the source
D(2) dopamine receptor [8] = biological target: T1, D(2) dopamine receptor; remark: listed apart in the source
D(2) dopamine receptor [9] = biological target: T1, D(2) dopamine receptor; remark: listed apart in the source
D(2) dopamine receptor [10] = biological target: T1, D(2) dopamine receptor; remark: listed apart in the source
D(2) dopamine receptor [11] = biological target: T1, D(2) dopamine receptor; experiment: Antagonist activity at human dopamine D2 receptor expressed in forskolin stimulated-HEK293 cells coexpressing renilla luciferase-fused Galphai1/GFP10-fused Ggamma2 assessed as inhibition of quinpirole-induced Galphai1 activation by BRET assay relative to quinpirole; assay type: cell-based
D(2) dopamine receptor [12] = biological target: T1, D(2) dopamine receptor; remark: listed apart in the source
D(3) dopamine receptor [13] = biological target: T2, D(3) dopamine receptor
D(2) dopamine receptor [14] = biological target: T1, D(2) dopamine receptor; remark: listed apart in the source

T2 sequence (P35462 whole entry): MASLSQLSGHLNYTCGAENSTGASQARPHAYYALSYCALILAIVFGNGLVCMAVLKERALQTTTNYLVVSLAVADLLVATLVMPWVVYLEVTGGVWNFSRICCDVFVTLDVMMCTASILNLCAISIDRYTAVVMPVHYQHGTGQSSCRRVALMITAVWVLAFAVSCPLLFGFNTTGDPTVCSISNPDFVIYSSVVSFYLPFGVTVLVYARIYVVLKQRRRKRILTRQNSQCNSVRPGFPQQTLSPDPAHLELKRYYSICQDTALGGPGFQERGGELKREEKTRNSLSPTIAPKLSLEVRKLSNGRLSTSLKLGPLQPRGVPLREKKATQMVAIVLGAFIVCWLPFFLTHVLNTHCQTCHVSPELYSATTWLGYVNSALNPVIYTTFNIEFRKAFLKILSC
T1 sequence (P14416 whole entry): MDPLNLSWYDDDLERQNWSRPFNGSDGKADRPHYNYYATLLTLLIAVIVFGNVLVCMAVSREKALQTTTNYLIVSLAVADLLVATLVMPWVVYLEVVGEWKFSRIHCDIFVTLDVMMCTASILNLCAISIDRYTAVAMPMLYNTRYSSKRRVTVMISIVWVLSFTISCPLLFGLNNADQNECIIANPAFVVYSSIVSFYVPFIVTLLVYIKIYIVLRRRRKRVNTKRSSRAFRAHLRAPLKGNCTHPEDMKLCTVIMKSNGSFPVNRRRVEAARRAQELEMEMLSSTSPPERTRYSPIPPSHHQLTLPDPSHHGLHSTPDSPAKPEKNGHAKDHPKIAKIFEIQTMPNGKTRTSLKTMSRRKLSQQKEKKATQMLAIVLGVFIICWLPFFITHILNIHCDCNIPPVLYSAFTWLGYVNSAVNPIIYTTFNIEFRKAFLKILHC

For `CCCN[C@@H]1Cc2cccc3c2n(c(=O)n3CCCCCCOCCCCc2ccccc2)C1`, the Ki (D(2) dopamine receptor [1]) was 54.8 nM and the Ki (D(3) dopamine receptor [2]) was 80.6 nM.
Work on `CN[C@@H]1Cc2cccc3c2n(c(=O)n3CCCCOc2ccc3c(c2)NC(=O)CC3)C1` yielded an IC50 (D(2) dopamine receptor [3]) of 4100 nM, an Imax (D(2) dopamine receptor [4]) of -64% and an Imax (D(2) dopamine receptor [5]) of -27%. It also gave an Imax (D(2) dopamine receptor [6]) of -10 to 0%, an EC50 (D(2) dopamine receptor [7]) of 713 nM and a Ki (D(2) dopamine receptor [1]) of 338 nM. The EC50 (D(2) dopamine receptor [8]) was 1500 nM, the EC50 (D(2) dopamine receptor [9]) was 105 nM and the EC50 (D(2) dopamine receptor [10]) was 255 nM. It also gave a Ki (D(3) dopamine receptor [2]) of 1350 nM and an Imax (D(2) dopamine receptor [11]) of -34%.
`CN[C@@H]1Cc2cccc3c2n(c(=O)n3CCOCCOCCOCCOc2ccc3c(c2)NC(=O)CC3)C1` was tested, and the Imax (D(2) dopamine receptor [4]) was -18%, the Imax (D(2) dopamine receptor [5]) was -67% and the Imax (D(2) dopamine receptor [6]) was -10 to 0%. It also gave an EC50 (D(2) dopamine receptor [7]) of 3980 nM, a Ki (D(2) dopamine receptor [1]) of 306 nM and an EC50 (D(2) dopamine receptor [8]) of 1870 nM. It also gave an EC50 (D(2) dopamine receptor [9]) of 1060 nM, an EC50 (D(2) dopamine receptor [10]) of 1000 nM and a Ki (D(3) dopamine receptor [2]) of 640 nM. The Imax (D(2) dopamine receptor [11]) was -66%.
Work on `CN[C@@H]1Cc2cccc3c2n(c(=O)n3CCCCCCCCCCCCOCCCCc2ccccc2)C1` yielded a Ki (D(2) dopamine receptor [1]) of 124 nM and a Ki (D(3) dopamine receptor [2]) of 141 nM.
Work on `CN[C@@H]1Cc2cccc3c2n(c(=O)n3CCOCCOCCCCc2ccccc2)C1` yielded an Imax (D(2) dopamine receptor [4]) of -36%, an Imax (D(2) dopamine receptor [5]) of -13% and an EC50 (D(2) dopamine receptor [7]) of 1850 nM. For the same compound, the Ki (D(2) dopamine receptor [1]) was 111 nM, the EC50 (D(2) dopamine receptor [8]) was 2470 nM and the EC50 (D(2) dopamine receptor [9]) was 351 nM. For the same compound, the EC50 (D(2) dopamine receptor [10]) was 1230 nM, the Ki (D(3) dopamine receptor [2]) was 227 nM and the Imax (D(2) dopamine receptor [11]) was -87%.
Work on `CN[C@@H]1Cc2cccc3c2n(c(=O)n3CCCCCCCCCCOCCCCc2ccccc2)C1` yielded an IC50 (D(2) dopamine receptor [3]) of 4490 nM, an Imax (D(2) dopamine receptor [4]) of -33% and an Imax (D(2) dopamine receptor [5]) of -10 to 0%. It also gave an Imax (D(2) dopamine receptor [6]) of -10 to 0%, a Ki (D(2) dopamine receptor [1]) of 23.8 nM and an IC50 (D(2) dopamine receptor [12]) of 802 nM. It also gave an EC50 (D(2) dopamine receptor [8]) of 2530 nM, an EC50 (D(2) dopamine receptor [10]) of 710 nM and a Ki (D(3) dopamine receptor [2]) of 113 nM. The Imax (D(2) dopamine receptor [11]) was -80%.
`CN[C@@H]1Cc2cccc3c2n(c(=O)n3CCCCCCCCOCCCCc2ccccc2)C1` showed an Imax (D(2) dopamine receptor [4]) of -67%, an Imax (D(2) dopamine receptor [5]) of -10 to 0% and an Imax (D(2) dopamine receptor [6]) of -10 to 0%. It also gave a Ki (D(2) dopamine receptor [1]) of 38.7 nM, a Ki (D(3) dopamine receptor [2]) of 77.7 nM and an Imax (D(2) dopamine receptor [11]) of -59%.
In the case of `CN[C@@H]1Cc2cccc3c2n(c(=O)n3CCCCOCCCCc2ccccc2)C1`, the Ki (D(2) dopamine receptor [1]) is reported as 121 nM and the Ki (D(3) dopamine receptor [2]) is reported as 377 nM.
`CN[C@@H]1Cc2cccc3[nH]c(=O)n(c23)C1` [SUMANIROLE] gave a Ki (D(3) dopamine receptor [13]) of 573 nM.
With `CN(CCCCOc1ccc2c(c1)NC(=O)CC2)[C@@H]1Cc2cccc3[nH]c(=O)n(c23)C1` the EC50 (D(2) dopamine receptor [7]) was 189 nM, the Ki (D(2) dopamine receptor [1]) was 40.1 nM and the EC50 (D(2) dopamine receptor [8]) was 74 nM. For the same compound, the EC50 (D(2) dopamine receptor [9]) was 158 nM, the EC50 (D(2) dopamine receptor [10]) was 3.1 nM and the Ki (D(3) dopamine receptor [2]) was 382 nM.
`CCCN[C@@H]1Cc2cccc3c2n(c(=O)n3CCCCNC(=O)c2cc3ccccc3[nH]2)C1` gave a Ki (D(2) dopamine receptor [1]) of 18.5 nM and a Ki (D(3) dopamine receptor [2]) of 115 nM.
With `CCCN(CCCCNC(=O)c1cc2ccccc2[nH]1)[C@@H]1Cc2cccc3c2n(c(=O)n3CCC)C1` the IC50 (D(2) dopamine receptor [3]) was 2970 nM, the Imax (D(2) dopamine receptor [4]) was -40% and the Imax (D(2) dopamine receptor [5]) was -28%. The Imax (D(2) dopamine receptor [6]) was -10 to 0%, the EC50 (D(2) dopamine receptor [7]) was 1150 nM and the IC50 (D(2) dopamine receptor [12]) was 4530 nM. It also gave an EC50 (D(2) dopamine receptor [8]) of 944 nM, an EC50 (D(2) dopamine receptor [9]) of 458 nM and an EC50 (D(2) dopamine receptor [10]) of 338 nM. For the same compound, the Imax (D(2) dopamine receptor [11]) was -31%.
`CCCN(CCC)[C@@H]1Cc2cccc3c2n(c(=O)n3CCC)C1` gave an IC50 (D(2) dopamine receptor [3]) of 931 nM, an Imax (D(2) dopamine receptor [4]) of -24% and an Imax (D(2) dopamine receptor [5]) of -23%. The EC50 (D(2) dopamine receptor [7]) was 16.8 nM, the IC50 (D(2) dopamine receptor [12]) was 98.9 nM and the EC50 (D(2) dopamine receptor [8]) was 20.5 nM. The EC50 (D(2) dopamine receptor [9]) was 0.9 nM, the EC50 (D(2) dopamine receptor [10]) was 1 nM and the IC50 (D(2) dopamine receptor [14]) was 158 nM. For the same compound, the Imax (D(2) dopamine receptor [11]) was -45%.
In the case of `CCCN[C@@H]1Cc2cccc3c2n(c(=O)n3CCCCOCCCCc2ccccc2)C1`, the EC50 (D(2) dopamine receptor [7]) is reported as 194 nM, the Ki (D(2) dopamine receptor [1]) is reported as 37.2 nM and the EC50 (D(2) dopamine receptor [8]) is reported as 197 nM. It also gave an EC50 (D(2) dopamine receptor [9]) of 24.6 nM, an EC50 (D(2) dopamine receptor [10]) of 25.6 nM and a Ki (D(3) dopamine receptor [2]) of 94.2 nM.
In the case of `CCCn1c(=O)n2c3c(cccc31)C[C@@H](N(C)CCCCNC(=O)c1cc3ccccc3[nH]1)C2`, the Ki (D(2) dopamine receptor [1]) is reported as 21.8 nM and the Ki (D(3) dopamine receptor [2]) is reported as 2.45 nM.
`CN[C@@H]1Cc2cccc3c2n(c(=O)n3CCCCCCOCCCCc2ccccc2)C1` showed a Ki (D(2) dopamine receptor [1]) of 60.6 nM and a Ki (D(3) dopamine receptor [2]) of 139 nM.
Compound `CCCN(CCC)[C@@H]1Cc2cccc3c2n(c(=O)n3CCCCNC(=O)c2cc3ccccc3[nH]2)C1` has an IC50 (D(2) dopamine receptor [3]) of 3650 nM, an Imax (D(2) dopamine receptor [4]) of -27% and an Imax (D(2) dopamine receptor [5]) of -41%. The Imax (D(2) dopamine receptor [6]) was -10 to 0%, the EC50 (D(2) dopamine receptor [7]) was 185 nM and the IC50 (D(2) dopamine receptor [12]) was 2010 nM. The EC50 (D(2) dopamine receptor [8]) was 270 nM, the EC50 (D(2) dopamine receptor [9]) was 56.9 nM and the EC50 (D(2) dopamine receptor [10]) was 53.8 nM. For the same compound, the IC50 (D(2) dopamine receptor [14]) was 713 nM and the Imax (D(2) dopamine receptor [11]) was -64%.
In the case of `CN[C@@H]1Cc2cccc3c2n(c(=O)n3CCCCCCCCCCCCOc2ccc3c(c2)NC(=O)CC3)C1`, the Imax (D(2) dopamine receptor [4]) is reported as -71%, the Imax (D(2) dopamine receptor [5]) is reported as -13% and the Imax (D(2) dopamine receptor [6]) is reported as -10 to 0%. The EC50 (D(2) dopamine receptor [7]) was 570 nM, the Ki (D(2) dopamine receptor [1]) was 284 nM and the EC50 (D(2) dopamine receptor [9]) was 667 nM. The EC50 (D(2) dopamine receptor [10]) was 1460 nM, the Ki (D(3) dopamine receptor [2]) was 598 nM and the Imax (D(2) dopamine receptor [11]) was -141%.
`CN[C@@H]1Cc2cccc3c2n(c(=O)n3CCOCCOCCOCCCCc2ccccc2)C1` was tested, and the Imax (D(2) dopamine receptor [4]) was -83%, the Imax (D(2) dopamine receptor [5]) was -47% and the Imax (D(2) dopamine receptor [6]) was -10 to 0%. It also gave an EC50 (D(2) dopamine receptor [7]) of 678 nM, a Ki (D(2) dopamine receptor [1]) of 34.7 nM and an EC50 (D(2) dopamine receptor [8]) of 139 nM. It also gave an EC50 (D(2) dopamine receptor [9]) of 88.7 nM, an EC50 (D(2) dopamine receptor [10]) of 279 nM and a Ki (D(3) dopamine receptor [2]) of 558 nM. It also gave an Imax (D(2) dopamine receptor [11]) of -72%.
